Results: PubChem BioAssay AID1919010 (Molecular Pharmacology Branch, DTP, NCI, 2023)
“And” between values parts separate entries of the source, which are not always exact repeats. Equal entries are not always repeated.

System: Hs578T complex spheroid growth, percent test/control
Test: Anticancer human tumor Hs578T cell line growth inhibition [AhR];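 note: luminescent viability signal as a proxy for spheroid growth; spheroids exposed to agents for one week after three days of growth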
Details: for viability, T/C: stronger effect = lower value
Procedure, shortened: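 Agents were dosed in half-log steps down from roughly clinical Cmax, or from 10 microM where Cmax was unknown, alone and with AhR antagonists. Read-out: percent test/control growth of tumor spheroids containing HUVEC and MSC stromal cells.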

[1] = curve of first compound, second compound 0.1 µM
[2] = curve of first compound, second compound 0.316 µM
[3] = curve of first compound, second compound 1 µM
[4] = curve of first compound, second compound 3.16 µM
[5] = curve of first compound, second compound 10 µM
[6] = second compound 0.1 µM, first compound 0.000949 µM
[7] = second compound 0.1 µM, first compound 0.003 µM
[8] = second compound 0.1 µM, first compound 0.00949 µM
[9] = second compound 0.1 µM, first compound 0.03 µM
[10] = second compound 0.1 µM, first compound 0.0949 µM
[11] = second compound 0.1 µM, first compound 0.3 µM
[12] = second compound 0.316 µM, first compound 0.000949 µM
[13] = second compound 0.316 µM, first compound 0.003 µM
[14] = second compound 0.316 µM, first compound 0.00949 µM
[15] = second compound 0.316 µM, first compound 0.03 µM
[16] = second compound 0.316 µM, first compound 0.0949 µM
[17] = second compound 0.316 µM, first compound 0.3 µM
[18] = second compound 1 µM, first compound 0.000949 µM
[19] = second compound 1 µM, first compound 0.003 µM
[20] = second compound 1 µM, first compound 0.00949 µM
[21] = second compound 1 µM, first compound 0.03 µM
[22] = second compound 1 µM, first compound 0.0949 µM
[23] = second compound 1 µM, first compound 0.3 µM
[24] = second compound 3.16 µM, first compound 0.000949 µM
[25] = second compound 3.16 µM, first compound 0.003 µM
[26] = second compound 3.16 µM, first compound 0.00949 µM
[27] = second compound 3.16 µM, first compound 0.03 µM
[28] = second compound 3.16 µM, first compound 0.0949 µM
[29] = second compound 3.16 µM, first compound 0.3 µM
[30] = second compound 10 µM, first compound 0.000949 µM
[31] = second compound 10 µM, first compound 0.003 µM
[32] = second compound 10 µM, first compound 0.00949 µM
[33] = second compound 10 µM, first compound 0.03 µM
[34] = second compound 10 µM, first compound 0.0949 µM
[35] = second compound 10 µM, first compound 0.3 µM

IC50 [1]	IC50 [2]	IC50 [3]	IC50 [4]	IC50 [5]	SMILES	viability, T/C [8]	viability, T/C [9]	viability, T/C [10]	viability, T/C [11]	viability, T/C [14]	viability, T/C [15]	viability, T/C [16]	viability, T/C [17]	viability, T/C [20]	viability, T/C [21]	viability, T/C [22]	viability, T/C [23]	viability, T/C [26]	viability, T/C [27]	viability, T/C [28]	other results
> 300 nM	> 300 nM	> 300 nM	> 300 nM	> 300 nM	Nc1ncn(C2CC(O)C(CO)S2)c(=O)n1 (configuration not stated) + Cc1ccccc1N=Nc1ccc(NC(=O)c2ccnn2C)c(C)c1	102%	99.8%	98.1%	85%	103%	102%	94.3%	96.5%	106%	90.5%	94.8%	84%	94.7%	83.9%	90.7%	viability, T/C [6]: 103%; viability, T/C [7]: 109%; viability, T/C [12]: 117%; viability, T/C [13]: 101%; viability, T/C [18]: 106%; viability, T/C [19]: 112%; viability, T/C [24]: 83%; viability, T/C [25]: 98.8%; viability, T/C [29]: 87.2%; viability, T/C [30]: 65.3%; viability, T/C [31]: 67%; viability, T/C [32]: 68%; viability, T/C [33]: 64%; viability, T/C [34]: 69.1%; viability, T/C [35]: 66.6%
> 300 nM	> 300 nM	> 300 nM	> 300 nM	> 300 nM	Nc1ncn(C2CC(O)C(CO)S2)c(=O)n1 (configuration not stated) + CC(CO)NC(=O)c1cc(-c2ccc(Cl)cc2)nn(-c2cnn(C)c2)c1=O	117%	119%	115%	98.6%	128%	110%	117%	108%	121%	121%	122%	118%	116%	116%	105%	viability, T/C [6]: 115%; viability, T/C [7]: 124%; viability, T/C [12]: 118%; viability, T/C [13]: 114%; viability, T/C [18]: 112%; viability, T/C [19]: 110%; viability, T/C [24]: 123%; viability, T/C [25]: 122%; viability, T/C [29]: 112%; viability, T/C [30]: 113%; viability, T/C [31]: 104%; viability, T/C [32]: 112%; viability, T/C [33]: 113%; viability, T/C [34]: 110%; viability, T/C [35]: 104%

Second part, the molecule before the results:

SMILES	IC50 [1]	IC50 [2]	IC50 [3]	IC50 [4]	IC50 [5]	viability, T/C [8]	viability, T/C [9]	viability, T/C [10]	viability, T/C [11]	viability, T/C [14]	viability, T/C [15]	viability, T/C [16]	viability, T/C [17]	viability, T/C [20]	viability, T/C [21]	viability, T/C [22]	viability, T/C [23]	viability, T/C [26]	viability, T/C [27]	viability, T/C [28]	other results
CCN(c1cc(-c2ccc(CN3CCOCC3)cc2)cc(C(=O)NCc2c(C)cc(C)[nH]c2=O)c1C)C1CCOCC1 + CC(CO)NC(=O)c1cc(-c2ccc(Cl)cc2)nn(-c2cnn(C)c2)c1=O	> 3000 nM	> 3000 nM	> 3000 nM	> 3000 nM	> 3000 nM	116%	112%	112%	102%	114%	112%	122%	109%	113%	121%	120%	107%	107%	113%	115%	viability, T/C (second compound 0.1 µM, first compound 0.949 µM): 104%; viability, T/C (second compound 0.1 µM, first compound 3 µM): 112%; viability, T/C (second compound 0.316 µM, first compound 0.949 µM): 114%; viability, T/C (second compound 0.316 µM, first compound 3 µM): 98.4%; viability, T/C (second compound 1 µM, first compound 0.949 µM): 111%; viability, T/C (second compound 1 µM, first compound 3 µM): 113%; viability, T/C [29]: 111%; viability, T/C (second compound 3.16 µM, first compound 0.949 µM): 104%; viability, T/C (second compound 3.16 µM, first compound 3 µM): 106%; viability, T/C [32]: 107%; viability, T/C [33]: 104%; viability, T/C [34]: 107%; viability, T/C [35]: 92.3%; viability, T/C (second compound 10 µM, first compound 0.949 µM): 101%; viability, T/C (second compound 10 µM, first compound 3 µM): 106%
CCc1c2c(nc3ccc(O)cc13)-c1cc3c(c(=O)n1C2)COC(=O)[C@]3(O)CC	–	–	–	–	–	–	–	–	–	–	–	–	–	–	–	–	–	–	–	–	viability, T/C (compound 0.000949 µM): 83.3% and 77.6% and 78.6%; viability, T/C (compound 0.003 µM): 70.5% and 82.2% and 73.2%; viability, T/C (compound 0.00949 µM): 74% and 64.3% and 76.1%; viability, T/C (compound 0.03 µM): 64.6% and 63.2% and 75%; viability, T/C (compound 0.0949 µM): 62.3% and 56.5% and 61.9%; viability, T/C (compound 0.3 µM): 47.1% and 38.3% and 43.4%; IC50 (curve of compound): 253 nM and 124 nM and 206 nM
CC(C)CC(NC(=O)C(Cc1ccccc1)NC(=O)c1cnccn1)B(O)O (configuration not stated) + Cc1ccccc1N=Nc1ccc(NC(=O)c2ccnn2C)c(C)c1	5.01 nM	4.98 nM	5.47 nM	4.53 nM	3.14 nM	11.7%	0.3%	0.81%	0.36%	14.1%	0.31%	0.28%	0.33%	16.9%	0.65%	0.44%	1.31%	16.6%	0.34%	0.39%	viability, T/C [6]: 107%; viability, T/C [7]: 80.8%; viability, T/C [12]: 94.6%; viability, T/C [13]: 78.1%; viability, T/C [18]: 98.2%; viability, T/C [19]: 86.1%; viability, T/C [24]: 88.6%; viability, T/C [25]: 68.7%; viability, T/C [29]: 0.32%; viability, T/C [30]: 62.1%; viability, T/C [31]: 51.2%; viability, T/C [32]: 16.6%; viability, T/C [33]: 0.45%; viability, T/C [34]: 0.83%; viability, T/C [35]: 0.53%
